According to patent US20160106107A1, “Compositions and Methods for Treating Microorganism” (priority 2006, published 2016):
Values joined by “and” are separate entries in the source; they are usually repeats but may differ in a detail not shown here. Equal values may be shown once. Read-outs that look alike come from different tables or passages of the source.

Experiments:
[1] = system: Erwinia carotovora subsp. carotovora (Ecc) biofilm; test: Ecc biofilm susceptibility, 24 h contact time; format: cell-based; conditions: for Ecc biofilm cell counts (unlabelled fourth line = mean of 3) / Log reduction of Ecc biofilms / Ecc biofilm cell counts (single replicates): 24 h contact time
Text: Carotovora (Ecc), the Soft Rot of Vegetables Pathogen, in Comparison to Nanocrystalline Silver Powder

[2] = system: naturally occurring microorganisms (bacteria and fungi) on bean seed surface; conditions: for Bacterial reduction / Fungal reduction / Total microbial reduction: vs untreated seeds, Experiments 1-3
Text: They included seeds that would normally be discarded during processing in a commercial seed treatment facility—damaged, discoloured, shrivelled or small seeds. Due to the fact they were not cleaned these seeds still contain soil, dirt, plant debris, etc. Therefore, this seed lot was expected to provide a good model for a high natural microbial challenge, with good diversity of organisms and high microbial recovery expected.
These seeds were processed and cleaned in a commercial seed treatment facility. Processing leads to rejection of small, damaged, and/or discoulored seeds, and thus a healthier overall seed lot. After processing, seeds were washed and cleaned, resulting in a significant reduction in soil, dirt or debris.
Experiments were conducted by treating lots of ‘Othello’ and ‘AC Polaris’ seeds with challenges described in Table 10. Seeds were placed individually onto wells of 12-well microtiter plates and treated for 1 h with silver and/or water. After treatment, seeds were rinsed by dipping into fresh phosphate buffer and subsequently transferred to a new 12-well microtiter plate containing fresh phosphate buffer and sonicated for 15-30 min. Sonication allowed for surviving bacterial and fungal to be removed from the seed surface and recovered into the liquid. After 6 days, each of the wells containing seeds were scored based on both: • the turbidity of the liquid in which they were originally immersed for treatment, on day 6. • seed surface area covered by bacterial and/or fungal colonization, also on day 6.
Six seeds were scored in each experiment and each experiment was repeated 3 times independently. Numbers presented on Tables 11, 13, and 15 represent the mean of 6 scores. […] Total microbial scores (bacteria and fungi together) and are represented as percentage of killing on Tables 12, 14, and 16.

[3] = system: dry bean (Phaseolus vulgaris L) seeds, cultivar Othello; test: Germination of dry bean seeds with aqueous seed coating under high bacterial load; format: in vivo; conditions: for # seeds germinated / % germination / Day to 25% germination: high bacterial load
Experimental: The efficacy of high valency silver ions produced by oxysilver nitrate was evaluated as a seed treatment on diseased dry bean seeds. The oxysilver nitrate was applied as an aqueous seed coating on the germination of dry bean (Phaseolus vulgaris L).
Seeds were placed on blotters in Petri plates, were soaked in an excess of water for 3 days, then drained on day 4. The 3-day period of excess water created a very high bacterial load′ on the germinating seeds and high disease pressure due to pathogenic, saprophytic and soft-rot bacteria. This disease pressure was so extreme that the germination rates for experiments 2-5 were essentially zero due to being overwhelmed by the microbial growth.

Orford (Soybean) seeds = conditions: for % of seeds germinated: Day 7 (speed of germination); for % germination: Day 14
Text: Germination on blotters was scored at 7- and 14-days. Emergence from soil was scored at 21- and 28-days.
To treat seeds, one hundred seeds were placed in a 50-mL Falcon tube and combined with the treatment solution. Seeds were mixed with the treatment for 5-min by gently rolling and inverting the Falcon tube. Coated seeds were placed in an open Petri plate for 30-min to dry. Seeds were sown 10-per pot, set in a greenhouse, and maintained under standard conditions with mercury lamp lighting supplementing daylight from 3:00 pm to 10:00 pm.
Stir constantly. 5% solution—after the 10% solution has equilibrated for 15-min, add 0.5-mL of 10% solution to 0.5-mL of sterile water. Stir constantly. 2.5% solution—add 0.25-mL of 10% solution to 0.75-mL of sterile water. Stir constantly. 1% solution—add 0.1-mL of 10% solution to 0.9-mL of sterile water. Stir constantly. […] Gently roll and invert the tube for 5 min to evenly coat each seed without causing damage. Remove seeds from tube by pouring carefully into an empty Petri plate. Leave exposed (lid off) and air dry seeds for 30 min.
(1) Germination: Place 50 seeds from each treatment onto 25 individual moistened blotters in large Petri plates. Incubate at room temperature for 2-weeks with or without light. Score germination at 7- and 14-days. (2) Emergence: Sow 50 seeds from each treatment into five pots (10-seeds per pot and five pots per treatment). Place in a greenhouse at 22° C. with ample air circulation. Use mercury lamps to supplement lighting (on at 3:00 pm; off at 10:00 pm) if necessary. For pre-emergent plants, water pots as needed to keep soil moist but not wet. Water emergent plants daily. Score emergence at 21 and 28 days.
After seeds were treated and air-dried, they were sown in potted, non-sterile soil in a greenhouse. Alternatively they were placed on moist blotters in large Petri plates.

healthy dry bean seed = test: Germination of healthy dry bean seed; format: in vivo
[4] = system: Pseudomonas syringae pv. phaseolicola HB-9 planktonic
[5] = system: Pseudomonas syringae pv. phaseolicola HB-9 biofilm
[6] = system: Pseudomonas syringae pv. phaseolicola on bean seed surface; conditions: Experiments 1-3; for Total microbial score: day 6, bacteria + fungi
[7] = AC Polaris Inoculated, vs untreated seeds
[8] = AC Polaris seeds, inoculated w/ bacteria, 0.1%, 1 h, scored day 6 on scale 0-5, mean of 6 seeds
[9] = Othello Inoculated, vs untreated seeds
[10] = lowest concentration (5000 ppm)

Molecule: oxysilver nitrate [High valency silver]
- Ecc biofilm cell counts (unlabelled fourth line = mean of 3) ([1]; 50 ppm): 1.53 log10
- Log reduction of Ecc biofilms ([1]; 50 ppm): 2.23
- Ecc biofilm cell counts (single replicates) ([1]; 50 ppm, listed as Oxy): 1.60 log10 and 1.00 log10 and 2.00 log10
- Ecc biofilm cell counts (unlabelled fourth line = mean of 3) ([1]; 100 ppm): 0.65 log10
- Log reduction of Ecc biofilms ([1]; 100 ppm): 3.11
- Ecc biofilm cell counts (single replicates) ([1]; 100 ppm, listed as Oxy): 0 log10 (2×) and 1.95 log10
- Ecc biofilm cell counts (unlabelled fourth line = mean of 3) ([1]; 200 ppm): 0.70 log10
- Log reduction of Ecc biofilms ([1]; 200 ppm): 3.06
- Ecc biofilm cell counts (single replicates) ([1]; 200 ppm, listed as Oxy): 0 log10 (2×) and 2.11 log10
- Ecc biofilm cell counts (single replicates) ([1]; 500 ppm): 0 log10
- Ecc biofilm cell counts (unlabelled fourth line = mean of 3) ([1]; 500 ppm): 0.00 log10
- Log reduction of Ecc biofilms ([1]; 500 ppm): 3.76
- anti-microbial efficacy compared with nanocrystalline silver ([1]; plant pathogenic Erwinia spp.): as efficacious as nanocrystalline silver
- Bacterial reduction ([2]; AC Polaris Non-inoculated): 67% and 90% and 100%
- Fungal reduction ([2]; AC Polaris Non-inoculated): 100% and 62%
- Total microbial reduction ([2]; AC Polaris Non-inoculated): 81% and 78% and 100%
- Bacterial reduction ([2]; Othello Non-inoculated): 80% and 62% and 88%
- Fungal reduction ([2]; Othello Non-inoculated): 70% and 100% and 74%
- Total microbial reduction ([2]; Othello Non-inoculated): 75% and 86% and 81%
- bactericidal and fungicidal efficacy ([2]; various bacterial and fungal species associated with seed surfaces, 3 independent replications): good bactericidal and fungicidal efficacy
- # seeds germinated ([3]; 0.1%): 53
- % germination ([3]; 0.1%): 35.3%
- Day to 25% germination ([3]; 0.1%): 5 days
- # seeds germinated ([3]; 0.5%): 53
- % germination ([3]; 0.5%): 35.3%
- Day to 25% germination ([3]; 0.5%): 5 days
- germination higher than Apron Maxx RTA ([3]; 1%, by day 10): 54%
- increase of germination compared with the negative control (sterile water) ([3]; 1%, by day 10): 34.7%
- # seeds germinated ([3]; 1%): 91
- % germination ([3]; 1%): 60.7%
- Day to 25% germination ([3]; 1%): 5 days
- # seeds germinated ([3]; […]): 51
- % germination ([3]; […]): 43.0%
- Day to 25% germination ([3]; […]): 5 days
- % of seeds germinated (Orford (Soybean) seeds; 0.1%): 28%
- % germination (Orford (Soybean) seeds; 0.1%): 50%
- % of seeds germinated (Orford (Soybean) seeds; 0.5%): 34.5%
- % germination (Orford (Soybean) seeds; 0.5%): 58%
- % of seeds germinated (Orford (Soybean) seeds; 1%): 59.4%
- % germination (Orford (Soybean) seeds; 1%): 64%
- germination rate higher than water (Orford (Soybean) seeds; 1%, after 14 days): 34%
- % of seeds germinated (Orford (Soybean) seeds; […]): 29.6%
- % germination (Orford (Soybean) seeds; […]): 54%
- bacterial growth on treated seeds (Orford (Soybean) seeds; soybean seeds and blotters): did not appear to have major bacterial growth
- # seeds germinated (healthy dry bean seed; 0.1%): 84
- % germination (healthy dry bean seed; 0.1%): 84%
- Day to 50% germination (healthy dry bean seed; 0.1%): 6.5 days
- Day to 100% germination (healthy dry bean seed; 0.1%): 9.0 days
- # seeds germinated (healthy dry bean seed; 0.5%): 86
- % germination (healthy dry bean seed; 0.5%): 86%
- Day to 50% germination (healthy dry bean seed; 0.5%): 6.0 days
- Day to 100% germination (healthy dry bean seed; 0.5%): 9.0 days
- # seeds germinated (healthy dry bean seed; 1%): 89
- % germination (healthy dry bean seed; 1%): 89%
- Day to 100% germination (healthy dry bean seed; 1%): 9.0 days
- # seeds germinated (healthy dry bean seed; […]): 81
- % germination (healthy dry bean seed; […]): 81%
- Day to 100% germination (healthy dry bean seed; […]): 9.0 days
- germination compared with water control or Apron Maxx RTA (healthy dry bean seed; healthy dry bean seed): more rapid germination and higher percent germination rate
- PspHB-9 Planktonic cell counts ([4]; 100 ppm): 0 log10
- PspHB-9 Planktonic cell counts ([4]; 500 ppm): 0 log10
- PspHB-9 Planktonic cell counts ([4]; 1000 ppm): 0 log10
- eradication of planktonic ([4]; at the lowest concentration): 100%
- PspHB-9 Biofilm cell counts ([5]; 100 ppm): 0 log10
- PspHB-9 Biofilm cell counts ([5]; 500 ppm): 0 log10
- PspHB-9 Biofilm cell counts ([5]; 1000 ppm): 0 log10
- eradication of biofilm ([5]; at the lowest concentration): 100%
- Bacterial reduction [6, 7]: 100% and 96%
- Total microbial reduction [6, 7]: 100% and 96%
- Total microbial score ([6]; AC Polaris seeds, inoculated w/ bacteria, 0.1%, 1 h): 0
- Total microbial score ([6]; AC Polaris seeds, inoculated w/ bacteria, 0.1%, 1 h, listed as High valency silver nitrate 1): 0.16
- Bacteria score [6, 8]: 0
- Fungi score [6, 8]: 0
- Bacteria score ([6]; AC Polaris seeds, inoculated w/ bacteria, 0.1%, 1 h, scored day 6 on scale 0-5, mean of 6 seeds, listed as High valency silver nitrate 1): 0.16
- Bacterial reduction [6, 9]: 41% and 78% and 60%
- Fungal reduction [6, 9]: 78% and 75% and 100%
- Total microbial reduction [6, 9]: 65% and 77% and 79%
- Total microbial score ([6]; Othello seeds, inoculated w/ bacteria, 0.1%, 1 h): 1.83 and 1.32 and 1.66

Molecule: O=S(=O)([O-])[O-].[Cu+2] [Copper sulfate]
- PspHB-9 Planktonic cell counts ([4]; 1250 ppm): 2.95 log10
- PspHB-9 Planktonic cell counts ([4]; 2900 ppm): 0 log10
- PspHB-9 Planktonic cell counts ([4]; 4600 ppm): 0 log10
- reduction of planktonics [4, 10]: ~48%
- PspHB-9 Biofilm cell counts ([5]; 1250 ppm): 5.15 log10
- PspHB-9 Biofilm cell counts ([5]; 2900 ppm): 0 log10
- PspHB-9 Biofilm cell counts ([5]; 4600 ppm): 0 log10
- reduction of biofilms [5, 10]: 17%
- concentration required to be effective ([5]; planktonic cells and biofilms): 11460 ppm
